Data set [1] deals with sequelae of cerebellar hemorrhage (loss of motor control, language disorder) in a person. Here is the method:
A person was hospitalized after developing cerebellar hemorrhage about eight years ago, then was transferred to a rehabilitation hospital after discharge to receive rehabilitation, which they are continuing to this day.
The inhalation of molecular hydrogen was performed daily for the first 2 months, 1 to 1.5 hours in the morning and 1 to 1.5 hours in the evening, then daily for 1 month, 2 to 3 hours in the morning and 2 to 3 hours in the evening, and finally daily for 1 month, 1 hour in the morning and 1 hour in the evening.

The conditions of data set [2]: normal temperature and pressure; also printed as 1.6 mg/L; cited from earlier work.

`[HH]` [molecular hydrogen]: the “articulation (language disorder)” value in data set [1] (approximately one month after inhaling) is “improved”. Further, in data set [1] (approximately one month after inhaling, about 6 to 7.5 vol % H2), the “time needed to walk a distance that previously took 20 minutes” value is listed as “about 10 minutes”. The speech result in data set [1] (approximately three months after inhalation) is “their speech became even more audible”. Also, the “motor and daily-life abilities” value in data set [1] (approximately two months after inhalation) was “able to talk while walking, their stride during rehabilitation lengthened”. In addition, in data set [2], the “concentration at which hydrogen dissolves in water” value is reported as “about 1.6 ppm”.

Source of the values: patent US20200368272A1, “COMPOSITION FOR AMELIORATING POST-CEREBRAL STROKE SEQUELA” (MiZ Company Limited, priority 2019, published 2020).
